Assay results as given in patent publication US4309425A (priority 1980, dated 1982).
Like-named read-outs stand apart in the source and are kept apart here.

Columns and labels:
[1] = system: Eggs of the beet armyworm (Spodoptera exigua); assay: beet armyworm egg (ovicidal) test, % eggs failing to hatch; format: in vivo; details: 72 h, three days, read-out: % Control (% eggs failing to hatch); for mortality at 1 %: 1% in acetone
Description: Eggs of the beet armyworm (Spodoptera exigua), laid on cellophane discs each containing 50-75 eggs, were placed in petri dishes and lightly sprayed with 1% concentrations of the indicated compounds in acetone solution. Three days later, percent control (% eggs failing to hatch) was determined.
Eggs of the beet armyworm (Spodoptera exigua), laid on cellophane discs each containing 50-75 eggs, were placed in petri dishes and lightly sprayed with 200 ppm concentration of the indicated compounds in acetone solution. Three days later, percent control (% eggs failing to hatch) was determined.

Rhizoctonia solani = Rhizoctonia solani infested soil test, cotton; format: in vivo; details: 192 h, 1.5 kg/ha, 8 days
Description: Rhizoctonia solani-infested soil was placed in a 900 cc cup. Compounds of this invention were mixed at a rate of 1.5 kg/ha in a section 2" wide×2" deep×4" long to simulate an in-the-row application. Five cotton seeds were planted in the treated soil. After 8 days, the cotton plants were removed and rated for disease control.

Venturia inaequalis [2] = assay: apple scab residual wash-off test; format: in vivo; details: 1/2 inch simulated rainfall, 10-12 days
Description: Compounds of this invention are dissolved in acetone in an amount equal to 6% of the final volume and then suspended at a concentration of 20 ppm in purified water containing 25 ppm of the surfactant Alkanol® XC (sodium alkyl naphthalene sulfonate). This suspension is sprayed to the point of run-off on apple seedlings. The following day, 1/2 inch of simulated rainfall is applied to the foliage of the plants. When the foliage is dry, the plants are inoculated with a spore suspension of the fungus Venturia inaequalis and incubated in a growth room for 10-12 days. Disease ratings are then made. […] Phytotoxicity in the form of foliar burn was observed on the plants in association with disease control.

Venturia inaequalis [3] = assay: apple scab photostability test; format: in vivo; details: xenon arc 3500 foot candles 16 hours, 10-12 days
Description: Compounds of this invention are dissolved in acetone in an amount equal to 6% of the final volume and then suspended at a concentration of 20 ppm in purified water containing 25 ppm of the surfactant Alkanol® XC (sodium alkyl naphthalene sulfonate). This suspension is sprayed to the point of run-off on apple seedlings. When the foliage is dry, the plants are exposed to 3500 foot candles of light from a xenon arc source for a period of 16 hours. This light source approximates the spectrum of natural sunlight, and is used to assess photostability of the compounds of this invention on plant foliage. The following day, the plants are inoculated with a spore suspension of the fungus Venturia inaequalis and incubated in a growth room for 10-12 days. Disease ratings are then made. […] Phytotoxicity in the form of foliar burn was observed on some of the plants in association with disease control.

Erysiphe cichoracearum [4] = assay: cucumber powdery mildew preventive test; format: in vivo; details: Golovinomyces cichoracearum, 168 h, 7 days
Description: Compounds of this invention are dissolved in acetone in an amount equal to 6% of the final volume and then suspended at a concentration of 20 ppm in purified water containing 25 ppm of the surfactant Alkanol® XC (sodium alkyl naphthalene sulfonate). This suspension is sprayed to the point of run-off on cucumber seedlings. The following day, the plants are inoculated with a spore suspension of the fungus Erysiphe cichoracearum and incubated in a growth room for 7 days. Disease ratings are then made. […] Phytotoxicity in the form of foliar burn or growth reduction was observed on some of the plants in association with disease control.

Erisyphe cichoracearum = assay: cucumber powdery mildew curative test; format: in vivo; details: Cucumis sativus, 144 h, sprayed day after inoculation, additional 6 days
Description: Cucumber plants are inoculated with a spore suspension of the fungus Erisyphe cichoracearum and in a growth room overnight. The following day, the plants are sprayed to the point of run-off with a suspension prepared by dissolving compounds of this invention in acetone in an amount equal to 6% of the final volume and then suspended at a concentration of 20 ppm in purified water containing 25 ppm of the surfactant Alkanol® XC (sodium alkyl naphthalene sulfonate). Plants are returned to the growth room for an additional 6 days when disease ratings are then made. […] Phytotoxicity in the form of foliar burn or growth reduction was observed on some of the plants in association with disease control.

Erysiphe cichoracearum [5] = assay: cucumber powdery mildew residual wash-off test; format: in vivo; details: Golovinomyces cichoracearum, 168 h, 1/2 inch simulated rainfall, 7 days
Description: Compounds of this invention are dissolved in acetone in an amount equal to 6% of the final volume and then suspended at a concentration of 20 ppm in purified water containing 25 ppm of the surfactant Alkanol® XC (sodium alkyl naphthalene sulfonate). This suspension is sprayed to the point of run-off on cucumber seedlings. The following day, 1/2 inch of simulated rainfall is applied to the foliage of the plants. When the foliage is dry, the plants are inoculated with a spore suspension on the fungus Erysiphe cichoracearum and incubated in a growth room for 7 days. Disease ratings are then made.

Erysiphe cichoracearum [6] = assay: cucumber powdery mildew photostability test; format: in vivo; details: Golovinomyces cichoracearum, 168 h, xenon arc 3500 foot candles 16 hours, 7 days
Description: Compounds of this invention are dissolved in acetone in an amount equal to 6% of the final volume and then suspended at a concentration of 20 ppm in purified water containing 25 ppm of the surfactant Alkanol® XC (sodium alkyl naphthalene sulfonate). This suspension is sprayed to the point of run-off in cucumber seedlings. When the foliage is dry, the plants are exposed to 3500 foot candles of light from a xenon arc source for a period of 16 hours. This light source approximates the spectrum of natural sunlight, and is used to assess photostability of the compounds of this invention on plant foliage. The following day, the plants are inoculated with a spore suspension of the fungus Erysiphe cichoracearum and incubated in a growth room for 7 days. Disease ratings are then made.

[7] = system: Puccinia graminis var. tritici; assay: whole plant or invertebrate; format: in vivo; details: 192 h, read-out: % control wheat rust in preventive test
[8] = system: Puccinia graminis var. tritici; assay: whole plant or invertebrate; format: in vivo; details: 192 h, read-out: % control wheat rust in residual wash-off test
[9] = system: Puccinia graminis var. tritici; assay: whole plant or invertebrate; format: in vivo; details: 192 h, read-out: % control wheat rust in a photostability test
Phytophthora infestans = assay: whole plant or invertebrate; format: in vivo; details: in Solanum lycopersicum, 96 h, read-out: % control tomato late blight in a photostability test
Sclerotinia sclerotiorum = assay: white mold on carrot sections dip test; details: 100 ppm dip, 20° C., six days
Description: Surface-sterilized carrot sections were dipped two minutes in a 100 ppm solution of the compounds of this invention. Additional sections were dipped in a check solution which contained 500 ppm Alkanol® XC (sodium alkyl naphthalene sulfonate). After inoculation by placing a mycelial plug of Sclerotinia sclerotiorum on each carrot section, the test was held at 20° C. for six days.
The untreated carrot sections were completely invaded with the mycelial growth of white mold fungus, but the treated sections had little or no growth by this disease causing organism.

Row | SMILES | mortality at 1 % [1] [%] | pest or weed control at 1500 g/ha (Rhizoctonia solani) [%] | pest or weed control at 20 ppm (Venturia inaequalis [2]) [%] | pest or weed control at 20 ppm (Venturia inaequalis [3]) [%] | pest or weed control at 20 ppm (Erysiphe cichoracearum [4]) [%] | pest or weed control at 20 ppm (Erisyphe cichoracearum) [%] | pest or weed control at 20 ppm (Erysiphe cichoracearum [5]) [%] | pest or weed control at 20 ppm (Erysiphe cichoracearum [6]) [%] | pest or weed control at 20 ppm [7] [%] | pest or weed control at 20 ppm [8] [%] | pest or weed control at 20 ppm [9] [%] | pest or weed control at 20 ppm (Phytophthora infestans) [%] | % control White Mold (Sclerotinia sclerotiorum) [%] | mortality at 200 ppm ([1]; 200 ppm in acetone) [%]
1 | Cc1ccc(S(=O)(=O)N(C)SN(c2cc(C(F)(F)F)ccc2Cl)c2c([N+](=O)[O-])cc([N+](=O)[O-])cc2C(F)(F)F)cc1 | 100 | 100 | 100 | 100 | 100 | 100 | 92 | 0 | 80 | 100 | 40 | 50 | 100 | 
2 | CCCCN(SN(c1cc(C(F)(F)F)ccc1Cl)c1c([N+](=O)[O-])cc([N+](=O)[O-])cc1C(F)(F)F)S(=O)(=O)c1ccccc1C | 100 | 50 | 100 | 80 | 100 | 93 | 100 | 100 | 100 | 100 | 98 | 90 | 100 | 
3 | CCCCN(SN(c1cc(C(F)(F)F)ccc1Cl)c1c([N+](=O)[O-])cc([N+](=O)[O-])cc1C(F)(F)F)S(=O)(=O)c1ccc(C)cc1 |  | 100 | 100 | 0 | 100 | 92 | 100 | 75 | 100 | 100 | 100 | 95 | 86 | 100
